Target: RIPK1 (Homo sapiens (Human), UniProt Q13546)
Test: RIPK1-ADP-Glo Enzymatic Assay
Type: biochemical
Conditions: recombinant GST-RIPK1 kinase domain (residues 1-327), 25 nM, ten-point titration, 30 minutes pre-incubation
Outline: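 GST-RIPK1 kinase domain (residues 1-327, Sf21-expressed; 25 nM final) was pre-incubated 30 min at ambient temperature with compound (10-point 1:3 series from 100000 nM, 1% DMSO) in HEPES pH 7.3 buffer with 20 mM MgCl2. The reaction was started with 900 μM ATP (addition solution) and 3 μM dephosphorylated MBP and ran 150 min. Read-out was ADP-Glo luminescence, with EC50 from a four-parameter fit.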

RIPK1, sequence (Q13546 1-327): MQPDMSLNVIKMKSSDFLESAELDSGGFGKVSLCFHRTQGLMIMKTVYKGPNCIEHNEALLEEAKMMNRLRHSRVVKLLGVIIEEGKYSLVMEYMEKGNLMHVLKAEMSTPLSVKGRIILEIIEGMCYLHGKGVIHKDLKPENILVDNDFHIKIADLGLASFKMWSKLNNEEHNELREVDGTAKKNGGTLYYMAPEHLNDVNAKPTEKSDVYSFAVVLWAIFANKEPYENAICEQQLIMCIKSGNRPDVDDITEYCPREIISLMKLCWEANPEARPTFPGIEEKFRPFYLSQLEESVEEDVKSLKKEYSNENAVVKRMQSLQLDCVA

EC50 [nM] | Compound
501 | Cc1cc(N2CCC3(CC2)CN2CC[C@@H](c4cc(F)cc(F)c4)N2C3=O)ccn1 [Example 2.3, (S)-7′-(3,5-difluorophenyl)-1-(2-methylpyridin-4-yl)dihydro-l′H,3′H,5′H-spiro[piperidine-4,2′-pyrazolo[1,2-a]pyrazol]-1′-one]
59 | O=C1N2[C@H](c3cc(F)cc(F)c3)CCN2CC12CCN(c1ccnc(C3CC3)n1)CC2 [Example 1.46, (S)-1-(2-cyclopropylpyrimidin-4-yl)-7′-(3,5-difluorophenyl)dihydro-1′H,3′H,5′H-spiro[piperidine-4,2′-pyrazolo[1,2-a]pyrazol]-1′-one]
393 | Cc1cnc(N2CCC3(CC2)CN2CC[C@@H](c4cc(F)cc(F)c4)N2C3=O)nc1 [Example 1.6, (7′S)-7′-(3,5-difluorophenyl)-1-(5-methylpyrimidin-2-yl)dihydro-1′H,3′H,5′H-spiro[piperidine-4,2′-pyrazolo[1,2-a]pyrazol]-1′-one]
209 | O=C(c1cccnc1)N1CCC2(CC1)CN1CC[C@@H](c3cc(F)cc(F)c3)N1C2=O [Example 4.4, (S)-7′-(3,5-difluorophenyl)-1-nicotinoyldihydro-1′H,3′H,5′H-spiro[piperidine-4,2′-pyrazolo[1,2-a]pyrazol]-l′-one]
89 | CSc1cnc(N2CCC3(CC2)CN2CC[C@@H](c4cc(F)cc(F)c4)N2C3=O)nc1 [Example 1.22, (S)-7′-(3,5-difluorophenyl)-1-(5-(methylthio)pyrimidin-2-yl)dihydro-1′H,3′H,5′H-spiro [piperidine-4,2′-pyrazolo[1,2-a]pyrazol]-1′-one]
33 | O=C1N2[C@H](c3cc(F)cc(F)c3)CCN2CC12CCN(c1ccnc3ccnn13)CC2 [Example 2.10, (S)-7′-(3,5-difluorophenyl)-1-(pyrazolo[1,5-a]pyrimidin-7-yl)dihydro-1′H,3′H,5′H-spiro[piperidine-4,2′-pyrazolo[1,2-a]pyrazol]-1′-one]
26 | O=C1N2[C@H](c3cc(F)cc(F)c3)CCN2CC12CCN(c1ncc(F)c(C(F)F)n1)CC2 [Example 1.57, (S)-1-(4-(difluoromethyl)-5-fluoropyrimidin-2-yl)-7′-(3,5-difluorophenyl)dihydro-1′H,3′H,5′H-spiro[piperidine-4,2′-pyrazolo[1,2-a]pyrazol]-1′-one]
67 | O=C(c1cc(F)c(F)c(F)c1)N1CCC2(CC1)CN1CC[C@@H](c3cc(F)cc(F)c3)N1C2=O [Example 4.10, (S)-7′-(3,5-difluorophenyl)-1-(3,4,5-trifluorobenzoyl) dihydro-1′H,3′H,5′H-spiro[piperidine-4,2′-pyrazolo[1,2-a]pyrazol]-l′-one]
28 | O=C1N2[C@H](c3cc(F)cc(F)c3)CCN2CC12CCN(c1cccc(F)n1)CC2 [Example 1.71, (S)-7′-(3,5-difluorophenyl)-1-(6-fluoropyridin-2-yl)dihydro-1′H,3′H,5′H-spiro[piperidine-4,2′-pyrazolo[1,2-a]pyrazol]-1′-one]
20 | CC(=O)c1cnc(N2CCC3(CC2)CN2CC[C@@H](c4cc(F)cc(F)c4)N2C3=O)cc1Cl [Example 1.62, (S)-1-(5-acetyl-4-chloropyridin-2-yl)-7′-(3,5-difluorophenyl)dihydro-1′H,3′H,5′H-spiro[piperidine-4,2′-pyrazolo[1,2-a]pyrazol]-1′-one]
67 | Cc1cc(N2CCC3(CC2)CN2CC[C@@H](c4cc(F)cc(F)c4)N2C3=O)nc(C#N)n1 [Example 1.16, (S)-4-(7′-(3,5-difluorophenyl)-1′-oxodihydro-1′H,3′H,5′H-spiro[piperidine-4,2′-pyrazolo[1,2-a]pyrazol]-1-yl)-6-methylpyrimidine-2-carbonitrile]
6 | O=C1N2[C@H](c3cc(F)cc(F)c3)CCN2CC12CCN(c1cccc(-n3nccc3C(F)(F)F)n1)CC2 [Example 2.12, (S)-7′-(3,5-difluorophenyl)-1-(6-(5-(trifluoromethyl)-1H-pyrazol-1-y1)pyridin-2-yl)dihydro-l′H,3′H,5′H-spiro[piperidine-4,2′-pyrazolo[1,2-a]pyrazol]-1′-one]
6 | O=C1N2[C@H](c3cc(F)cc(F)c3)CCN2CC12CCN(c1cc(-c3cnn(C(F)F)c3)ncn1)CC2 [Example 1.87, (S)-1-(6-(1-(difluoromethyl)-1H-pyrazol-4-yl)pyrimidin-4-yl)-7′-(3,5-difluorophenyl)dihydro-1′H,3′H,5′H-spiro[piperidine-4,2′-pyrazolo[1,2-a]pyrazol]-1′-one]
629 | O=C1N2[C@H](c3cc(F)cc(F)c3)CCN2CC12CCN(c1cccc(CO)n1)CC2 [Example 1.4, (7′S)-7′-(3,5-difluorophenyl)-1-[6-(hydroxymethyl)pyridin-2-yl]dihydro-1′H,3′H,5′H-spiro [piperidine-4,2′-pyrazolo[1,2-a]pyrazol]-1′-one]
24 | O=C1N2[C@H](c3cc(F)cc(F)c3)CCN2CC12CCN(c1ccnc3ccccc13)CC2 [Example 2.7, (S)-7′-(3,5-difluorophenyl)-1-(quinolin-4-yl)dihydro-1′H,3′H,5′H-spiro[piperidine-4,2′-pyrazolo[1,2-a]pyrazol]-1′-one]
34 | O=C1N2[C@H](c3cc(F)cc(F)c3)CCN2CC12CCN(c1nccn3nccc13)CC2 [Example 2.11, (S)-7′-(3,5-difluorophenyl)-1-(pyrazolo[1,5-a]pyrazin-4-y1)dihydro-l′H,3′H,5′H-spiro[piperidine-4,2′-pyrazolo[1,2-a]pyrazol]-1′-one]
208 | CCc1nccc(N2CCC3(CC2)CN2CC[C@@H](c4cc(F)cc(F)c4)N2C3=O)n1 [Example 1.72, (S)-7′-(3,5-difluorophenyl)-1-(2-ethylpyrimidin-4-yl)dihydro-1′H,3′H,5′H-spiro[piperidine-4,2′-pyrazolo[1,2-a]pyrazol]-1′-one]
31 | O=C(c1c(F)ccc(F)c1F)N1CCC2(CC1)CN1CC[C@@H](c3cc(F)cc(F)c3)N1C2=O [Example 4.9, (S)-7′-(3,5-difluorophenyl)-1-(2,3,6-trifluorobenzoyl) dihydro-1′H,3′H,5′H-spiro[piperidine-4,2′-pyrazolo[1,2-a]pyrazol]-l′-one]
288 | O=C1N2[C@H](c3cc(F)cc(F)c3)CCN2CC12CCN(c1ncc3c(n1)CCCC3)CC2 [Example 1.32, (S)-7′-(3,5-difluorophenyl)-1-(5,6,7,8-tetrahydroquinazolin-2-yl)dihydro-1′H,3′H,5′H-spiro[piperidine-4,2′-pyrazolo[1,2-a]pyrazol]-1′-one]
9 | N#Cc1ccc(N2CCC3(CC2)CN2CC[C@@H](c4cc(F)cc(F)c4)N2C3=O)c2ccnn12 [Example 2.2, (S)-4-(7′-(3,5-difluorophenyl)-1′-oxodihydro-l′H,3′H,5′H-spiro[piperidine-4,2′-pyrazolo[1,2-a]pyrazol]-1-yl)pyrazolo[1,5-a]pyridine-7-carbonitrile]
77 | O=C1N2[C@H](c3cc(F)cc(F)c3)CCN2CC12CCN(c1ccc(C(F)(F)F)cn1)CC2 [Example 1.39, (S)-7′-(3,5-difluorophenyl)-1-(5-(trifluoromethyl)pyridin-2-yl)dihydro-1′H,3′H,5′H-spiro[piperidine-4,2′-pyrazolo[1,2-a]pyrazol]-1′-one]
111 | CN(C)C(=O)c1ccnc(N2CCC3(CC2)CN2CC[C@@H](c4cc(F)cc(F)c4)N2C3=O)n1 [Example 1.88, (S)-2-(7′-(3,5-difluorophenyl)-1′-oxodihydro-1′H,3′H,5′H-spiro[piperidine-4,2′-pyrazolo[1,2-a]pyrazol]-1-yl)-N,N-dimethylpyrimidine-4-carboxamide]
637 | Cc1ccnc(N2CCC3(CC2)CN2CC[C@@H](c4cc(F)cc(F)c4)N2C3=O)n1 [Example 1.27, (S)-7′-(3,5-difluorophenyl)-1-(4-methylpyrimidin-2-yl)dihydro-1′H,3′H,5′H-spiro[piperidine-4,2′-pyrazolo[1,2-a]pyrazol]-1′-one]
28 | O=C1N2[C@H](c3cc(F)cc(F)c3)CCN2CC12CCN(c1cc(Cl)ccn1)CC2 [Example 1.11, (7′S)-1-(4-chloropyridin-2-yl)-7′-(3,5-difluorophenyl)dihydro-1′H,3′H,5′H-spiro[piperidine-4,2′-pyrazolo[1,2-a]pyrazol]-1′-one]
36 | O=C(c1cccc(F)c1Cl)N1CCC2(CC1)CN1CC[C@@H](c3cc(F)cc(F)c3)N1C2=O [Example 4.28, (S)-1-(2-chloro-3-fluorobenzoyl)-7′-(3,5-difluorophenyl)dihydro-1′H,3′H,5′H-spiro[piperidine-4,2′-pyrazolo[1,2-a]pyrazol]-l′-one]
37 | Cc1cn(-c2cc(N3CCC4(CC3)CN3CC[C@@H](c5cc(F)cc(F)c5)N3C4=O)ncn2)cn1 [Example 1.19, (S)-7′-(3,5-difluorophenyl)-1-(6-(4-methyl-1H-imidazol-1-yl)pyrimidin-4-yl)dihydro-1′H,3′H,5′H-spiro [piperidine-4,2′-pyrazolo[1,2-a]pyrazol]-1′-one]
50 | O=C(c1cc(F)ccc1Cl)N1CCC2(CC1)CN1CC[C@@H](c3cc(F)cc(F)c3)N1C2=O [Example 4.20, (S)-1-(2-chloro-5-fluorobenzoyl)-7′-(3,5-difluorophenyl) dihydro-1′H,3′H,5′H-spiro[piperidine-4,2′-pyrazolo[1,2-a]pyrazol]-l′-one]

Compound | EC50 [nM]
COc1ccc(F)cc1C(=O)N1CCC2(CC1)CN1CC[C@@H](c3cc(F)cc(F)c3)N1C2=O [Example 4.14, (S)-7′-(3,5-difluorophenyl)-1-(5-fluoro-2-methoxybenzoyl) dihydro-l′H,3′H,5′H-spiro[piperidine-4,2′-pyrazolo[1,2-a]pyrazol]-l′-one] | 386
O=C1N2[C@H](c3cc(F)cc(F)c3)CCN2CC12CCN(Cc1ccc3ccccc3n1)CC2 [Example 6.1, (S)-7′-(3,5-difluorophenyl)-1-(quinolin-2-ylmethyl) dihydro-1′H,3′H,5′H-spiro [piperidine-4,2′-pyrazolo[1,2-α]pyrazol]-1′-one] | 706

Reference: patent publication US20240425524A1, “SPIROTRICYCLE RIPK1 INHIBITORS AND METHODS OF USES THEREOF” (Merck Sharp & Dohme LLC, priority 2021, published 2024)
